From ChEMBL document CHEMBL4130409, “Gordonic Acid, a Polyketide Glycoside Derived from Bacterial Coculture of Streptomyces and Gordonia Species” (J Nat Prod, 2017)

Tests used:
Streptomyces tendae = assay: Growth inhibition of Streptomyces tendae KMC006 after 18 to 36 hrs by agar diffusion method; assay type: organism-based; details: in vivo
Gordonia sp. = assay: Growth inhibition of Gordonia sp. KMC005 after 18 to 36 hrs by agar diffusion method
Micrococcus luteus = assay: Antibacterial activity against Micrococcus luteus KCCM 11548 assessed as zone of inhibition at 10 microg/disk after 18 to 36 hrs by agar diffusion method; assay type: functional; details: read-out: DIZ
Enterococcus hirae = assay: Antibacterial activity against Enterococcus hirae KCCM 11768 assessed as zone of inhibition at 10 microg/disk after 18 to 36 hrs by agar diffusion method; assay type: functional; details: read-out: DIZ

With CC(/C=C/C=C/C=C/C=C/C(O)=C1\C(=O)[C@H](CCC(=O)O)N(C)C1=O)=C\[C@@H](C)[C@@H](O[C@H]1C[C@H](O)[C@H](O)[C@@H](C)O1)C(C)C the Activity (Streptomyces tendae) was “Non-Toxic” and the Activity (Gordonia sp.) was “Non-Toxic”.
CC(/C=C/C=C/C=C/C=C/C(=O)O)=C\[C@@H](C)[C@@H](O[C@H]1C[C@H](O)[C@H](O)[C@@H](C)O1)C(C)C was tested, and the Activity (Streptomyces tendae) was “Non-Toxic”, the Activity (Gordonia sp.) was “Non-Toxic” and the zone of inhibition at 10 µg/disc (Micrococcus luteus) was 2.5 mm. For the same compound, the zone of inhibition at 10 µg/disc (Enterococcus hirae) was 1.5 mm.
CC1(C)S[C@@H]2[C@H](NC(=O)[C@H](N)c3ccccc3)C(=O)N2[C@H]1C(=O)O [AMPICILLIN] gave a zone of inhibition at 10 µg/disc (Micrococcus luteus) of 10 mm and a zone of inhibition at 10 µg/disc (Enterococcus hirae) of 8 mm.
